Data: patent US7417162B2, “Oily ingredient for cosmetic preparation and cosmetic preparation” (Kyowa Yuka Co., Ltd., priority 2001, dated 2008)

Test: Test for solubility of a UV-A absorber in the oil
Type: physicochemical
Details: for Solubility of a UV-A absorber: UV-A absorber dissolved to saturation in the compound
Experimental: Then, absorbance (A) of a peak observed near 350 nm was measured. Solubility was figured out from a value calculated by the following equation and a weight of a sample prepared. The measurement temperatures are at room temperature ([…]) and 50° C.

Solubility of a UV-A absorber (50° C.): 40.7 g/100 g
Solubility of the UV-A absorber, in words (in comparison to comparative compound 1): excellent
Solubility of a UV-A absorber (room temperature (25° C.)): 23.1 g/100 g
Compound: CCC(CC(CC)C(=O)OC)C(=O)OC (stereo not drawn) [Compound 3, dimethyl 2,4-diethylglutarate]
